Experimental data: PMC9181589, “Antamanide Analogs as Potential Inhibitors of Tyrosinase” (International Journal of Molecular Sciences, 2022)
Entries after “also recorded” stand apart in the source; their conditions may differ.

Columns and labels:
B16F10 metastatic cells = conditions: after 24 h of treatment; cited from earlier work
Description: In the past years, we evaluated the chemical and biological activities of the cyclic decapeptide antamanide, firstly isolated from the lipophilic fraction of an extract of Amanite phalloides by the T. Wieland’s group in 1962 [3]. A characteristic of this peptide is its ability to form complexes of high stability with metal ions, including Na^+, K^+, Ca^2+, Tl^3+, and others. A close correlation has been found between the ion binding properties and the selectivity for Na^+ over K^+ with its antitoxic activity against phallotoxins and the prevention of their accumulation ... || Antamanide is a cyclic decapeptide isolated from the lipophilic fraction of an extract of the green toadstool Amanite phalloides, able to form complexes of high stability with different metal ions. In order to improve the hydrophilicity of this peptide, the Phe residue at either the six or nine positions was replaced with a Gly residue.

mushroom tyrosinase = assay: Tyrosinase inhibition, UV-Vis spectroscopic method (L-Tyr oxidation by tyrosinase/O2); format: biochemical
Description: The capability of peptides to inhibit the activity of tyrosinase has been evaluated by a UV-Vis spectroscopic method monitoring the changes in the UV-Vis spectrum of its natural substrate, L-Tyr. […] The addition of enzyme firstly hydroxylated the L-Tyr residue to dihydroxyphenylalanine (DOPA) and successively oxidized DOPA to dopaquinone, which is then converted to dopachrome (Scheme 2). Both DOPA and dopaquinone appearance can be detected by the change in the UV-Vis spectrum. The hydroxylation of L-Tyr to DOPA is characterized by an increase in the intensity of the band at 275 nm and the appearance of an additional band at about 304 nm, while the oxidation to dopaquinone is made detectable by the appearance of a band at 470–490 nm. […] This phase is related to the monophenolase activity of the enzyme and essentially is due to the low amount of the oxy form of the tyrosinase enzyme in the commercially available preparation. Although other various factors may play an important role, including substrate and enzyme concentration, enzyme source, pH of the medium, and presence of hydrogen donors such as DOPA or other catechols, also the presence of transition metal ions can influence the presence and the length of this lag-phase.
Millimolar peptide stock solutions were prepared in DMSO and then diluted to μM concentration by buffer in UV cells. […] The capability of peptides to inhibit the tyrosinase activity was evaluated at two different peptide concentrations, 2 and 0.2 µM.
The capability of cyclic peptides to inhibit the oxidation of Tyr by the tyrosinase/O2 oxidizing system was monitored by means of a UV-Vis spectroscopy method, carried out in a Shimadzu UV-Visible UV-2501 spectral spectrophotometer using Helma (Mülheim, Germany) duple chambers UV-cell (2 × 4.375 mm). Briefly, 880 µL of a Tyr solution (2 mM) and 900 µL of a mushroom tyrosinase solution (2000 U/mL, Sigma-Aldrich), both dissolved in 50 mM phosphate buffer (pH 6.8), were separately introduced in the duple UV-cell chambers. A total of 20 µL of an appropriate DMSO stock solution of inhibitors (1.8, 0.18, or 0.018 mM) were added to the chamber containing the Tyr solution. The tyrosinase activity in absence of inhibitors was detected by adding 20 µL of DMSO. A background UV-Vis spectrum was acquired in the 250–800 nm wavelength range with a 2.0 nm slit and fast speed before starting the reaction. Thereafter, the solutions were mixed, and UV-Vis spectra were acquired at different time points after mixing. Three replicates were performed for each experiment. Data processing was performed with UV Probe (Shimazdu, Kyoto, Japan) and OriginPro 2019 (v. 9.60) software (OriginLab Corporation, Northampton, MA, USA).
Purchased mushroom tyrosinase was used without further purification. […] The concentration of the two solution was determined spectrophotometrically (εTyr at 274.6 nm = 1.420; εtyrosinase at 280 nm = 1.426).
Tyrosinase-dependent diphenol and o-quinone formation was assessed as the appearance of a characteristic absorption band at about 304 and 477 nm, respectively. The inhibition activity was determined according to the following equation [33, 34]:% inhibition = 1 − [(D − C)/(B − A)] ∗ 100 where C and D are the absorbance values at either 304 or 477 nm in presence of inhibitor before mixing and upon reaching the maximum absorbance, respectively, while A and B are the corresponding values in absence of inhibitor.

[1] = cited from earlier work
Description: Antamanide is a cyclic decapeptide isolated from the lipophilic fraction of an extract of the green toadstool Amanite phalloides, able to form complexes of high stability with different metal ions. In order to improve the hydrophilicity of this peptide, the Phe residue at either the six or nine positions was replaced with a Gly residue.

| Substance | cell proliferation of metastatic melanoma cell line (B16F10 metastatic cells) | effects on tyrosinase activity (mushroom tyrosinase; antamanide concentration 20 µM, data not shown) | tyrosinase inhibitory activity (mushroom tyrosinase; peptide 2 and 0.2 µM from DMSO stock, L-Tyr substrate, 50 mM phosphate buffer pH 6.8, UV-Vis at 304 and 477 nm, three replicates) | ions selectivity [1] | dependence of tyrosinase inhibitory activity on peptide concentration (mushroom tyrosinase; 2 versus 0.2 µM (Figure 4)) | inhibitory activity towards the hydroxylation of tyrosine (mushroom tyrosinase; calculated at 303 nm, peptide 2 and 0.2 µM, 50 mM phosphate buffer pH 6.8) | inhibition of the oxidation of DOPA to dopaquinone (mushroom tyrosinase; calculated at 477 nm, peptide 2 and 0.2 µM, 50 mM phosphate buffer pH 6.8, three replicates) |
| --- | --- | --- | --- | --- | --- | --- | --- |
| antamanide | significant reduction of cell proliferation | absence of effects | did not inhibit; also recorded: No inhibitory activity; also recorded: not able to inhibit | Ca > Na >> K | – | – | – |
| pseudostellarin A [PS-A] | – | – | – | – | lower when the concentration was higher | low activity | about 30% |
